This note sets out measurements from patent US6949573B2, “Nicotinamide derivatives useful as PDE4 inhibitors” (Pfizer Inc, priority 2002, dated 2005).

The subject of the assay is human peripheral blood mononuclear cells. The experiment in a line: Inhibition of LPS-stimulated TNFα release from human peripheral blood mononuclear cells (TNFα screen). Type of assay: cell-based. As to conditions: LPS-stimulated human PBMC, 18 hours incubation, TNFα in supernatant by ELISA. Here is the method:
Venous blood Is collected from healthy volunteers and the mononuclear cells purified by centrifugation through Histopaque (ficoll) cushions. TNFα production from these cells is stimulated by addition of lipopolysaccharide. After 18 hours incubation in the presence of LPS, the cell supernatant is removed and the concentration of TNFα in the supernatant determined by ELISA. Addition of PDE4 inhibitors reduces the amount of TNFα produced. An IC50 is determined which is equal to the concentration of compound that gives 50% inhibition of TNFα production as compared to the LPS stimulated control wells.

The structures appear in SMILES notation.

Usually IC50 stands for the point on the concentration scale where inhibition reaches its midpoint.

In turn, `COC(=O)CCC(=O)NC1CCC(NC(=O)c2cc(F)cnc2Oc2ccc(F)cc2)CC1` (stereo not drawn) [Example 110, Syn-N-(4-{[5-fluoro-2-(4-fluoro-phenoxy)-pyridine-3-carbonyl]-amino}-cyclo-hexyl)-succinamic acid methyl ester] had an IC50 of 14 nM.
